Assay results as given in patent US20240158392A1 (Janssen Biotech, Inc., priority 2021, published 2024).

Target: SIK2 (Homo sapiens, UniProt Q9H0K1)
Test: SIK2 Enzymatic Assay Version 1 (ADP Glo)
Format: biochemical
Conditions: enzyme 0.6 nM, 160 μM ATP and 140 μM HDAC5tide (each 2× final concentration); 30 minutes pre-incubation, 4 hours; ADPGlo luminescence; read-out: SIK2 ADP Glo IC50 (μM) (Test Example 1)
Protocol: All steps were performed at room temperature. Compounds were pre-plated onto an assay plate using an Echo acoustic dispenser (Labcyte, E550 or E555) at 20 nL per well. Enzyme prepared in Assay Buffer at 0.6 nM (2× final concentration) was added at 2 μL per well using the Multidrop Combi (Thermo Fisher—used for all additions in this assay) to the assay plate, spun for 1 min at 800-850 rpm (Allegra 6KR Beckman Coulter centrifuge), and incubated with compound for 30 minutes.
One column of wells was dedicated to a no-peptide negative control (containing only ATP). ADPGlo Reagent (prepared and aliquoted as per manufacturer instructions) was then added at 2 μL per well, spun and incubated for 40 min. ADPGlo Detection (prepared and aliquoted as per manufacturer instructions) was added at 2 μL per well to the assay plate, which was spun and incubated for at least 30 min. The plate was then read on the Pherastar (BMG Labtech) using a luminescence read. Gain was set by the 0.1 mM concentration of ADP wells in the ADP/ATP standard curve plate generated as per manufacturer instructions.

Sequence of SIK2 (Q9H0K1 whole entry, species assumed): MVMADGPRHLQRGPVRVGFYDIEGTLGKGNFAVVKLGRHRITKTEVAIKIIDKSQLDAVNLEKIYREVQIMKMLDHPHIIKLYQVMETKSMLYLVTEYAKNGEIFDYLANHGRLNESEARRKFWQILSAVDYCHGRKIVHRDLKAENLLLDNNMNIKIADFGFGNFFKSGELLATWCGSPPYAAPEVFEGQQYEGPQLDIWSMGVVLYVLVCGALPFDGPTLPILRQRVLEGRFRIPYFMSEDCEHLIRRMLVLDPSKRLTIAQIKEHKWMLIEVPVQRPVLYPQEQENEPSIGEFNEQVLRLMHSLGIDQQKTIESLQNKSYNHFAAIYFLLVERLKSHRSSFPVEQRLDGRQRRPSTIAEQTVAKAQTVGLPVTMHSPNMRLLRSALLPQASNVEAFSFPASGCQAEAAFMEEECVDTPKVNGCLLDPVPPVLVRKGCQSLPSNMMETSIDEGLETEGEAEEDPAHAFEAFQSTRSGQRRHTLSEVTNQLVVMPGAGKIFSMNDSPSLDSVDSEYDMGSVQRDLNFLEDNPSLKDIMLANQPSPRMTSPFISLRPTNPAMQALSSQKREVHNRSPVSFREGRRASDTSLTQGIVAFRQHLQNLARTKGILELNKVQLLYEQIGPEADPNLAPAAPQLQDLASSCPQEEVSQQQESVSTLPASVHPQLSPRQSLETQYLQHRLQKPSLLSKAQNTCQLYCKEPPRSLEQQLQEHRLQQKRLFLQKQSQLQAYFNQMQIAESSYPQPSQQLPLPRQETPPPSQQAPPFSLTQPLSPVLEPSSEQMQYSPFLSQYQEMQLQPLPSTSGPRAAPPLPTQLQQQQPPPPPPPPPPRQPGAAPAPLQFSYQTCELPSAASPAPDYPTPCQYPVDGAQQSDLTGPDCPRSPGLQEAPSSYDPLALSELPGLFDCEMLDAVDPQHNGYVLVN

Compound | IC50
N#Cc1cc(-c2ccn3nc(NC(=O)C4CC4)cc3c2)c(O[C@@H]2CNCCOC2)cn1 [Example 21, N-[5-[2-cyano-5-[[(6R)-1,4-oxazepan-6-yl]oxy]-4-pyridyl]pyrazolo[1,5-a]pyridin-2-yl]cyclopropanecarboxamide] | 0.0213 µM
Cc1cc(-c2ccn3nc(NC(=O)C4CC4)cc3c2)c(OC[C@@H](N)C(C)(C)C)cn1 [Example 149, N-[5-[5-[(2S)-2-amino-3,3-dimethyl-butoxy]-2-methyl-4-pyridyl]pyrazolo[1,5-a]pyridin-2-yl]cyclopropanecarboxamide] | 0.0122 µM
CO[C@H]1C[C@H](Oc2cnc(C)cc2-c2ccn3nc(NC(=O)C4CC4)cc3c2)C1 [Example 146, trans-N-[5-[5-(3-methoxycyclobutoxy)-2-methyl-4-pyridyl]pyrazolo[1,5-a]pyridin-2-yl]cyclopropanecarboxamide] | 0.0352 µM
CN(C)CCNc1cnc(C#N)cc1-c1ccn2nc(NC(=O)C3CC3)cc2c1 [Example 2, N-[5-[2-cyano-5-(2-dimethylaminoethylamino)-4-pyridyl]pyrazolo[1,5-a]pyridin-2-yl]cyclopropanecarboxamide] | 0.0691 µM
CC(C)(C)OC(=O)N1CCC(COc2cnc(C#N)cc2-c2ccn3nc(NC(=O)C4CC4)cc3c2)C1 (stereo in doubt) [Example 35, tert-butyl (3R)-3-[[6-cyano-4-[2-(cyclopropanecarbonylamino)pyrazolo[1,5-a]pyridin-5-yl]-3-pyridyl]oxymethyl]pyrrolidine-1-carboxylate] | 0.0354 µM
CN1CCOC[C@@H](Oc2cnc(C#N)cc2-c2ccn3nc(NC(=O)C4CC4)cc3c2)C1 [Example 26, N-[5-[2-cyano-5-[[(6S)-4-methyl-1,4-oxazepan-6-yl]oxy]-4-pyridyl]pyrazolo[1,5-a]pyridin-2-yl]cyclopropanecarboxamide] | 0.0123 µM
CN1CC2CN(c3cnc(C#N)cc3-c3ccn4nc(NC(=O)C5CC5)cc4c3)CC2C1 (stereo not drawn) [Example 90, N-[5-[2-cyano-5-(2-methyl-1,3,3a,4,6,6a-hexahydropyrrolo[3,4-c]pyrrol-5-yl)-4-pyridyl]pyrazolo[1,5-a]pyridin-2-yl]cyclopropanecarboxamide] | 0.0134 µM
CN1C[C@@H](Oc2cnc(C#N)cc2-c2ccn3nc(NC(=O)C4CC4)cc3c2)C[C@@H](C(F)(F)F)C1 [Example 28, N-[5-[2-cyano-5-[[(3S,5R)-1-methyl-5-(trifluoromethyl)-3-piperidyl]oxy]-4-pyridyl]pyrazolo[1,5-a]pyridin-2-yl]cyclopropanecarboxamide] | 0.00922 µM
CN1CCOC[C@H](Oc2cnc(C#N)cc2-c2ccn3nc(NC(=O)C4CC4)cc3c2)C1 [Example 12, N-[5-[2-cyano-5-[[(6R)-4-methyl-1,4-oxazepan-6-yl]oxy]-4-pyridyl]pyrazolo[1,5-a]pyridin-2-yl]cyclopropanecarboxamide] | 0.0133 µM
COc1cccc(C)c1-c1ccn2nc(NC(=O)C3CC3)cc2c1 [Example 746, N-[5-(2-methoxy-6-methyl-phenyl)pyrazolo[1,5-a]pyridin-2-yl]cyclopropanecarboxamide] | 0.271 µM
CO[C@H]1C[C@@H](Oc2cnc(C)cc2-c2ccn3nc(NC(=O)C4CC4)cc3c2)C1 [Example 147, cis-N-[5-[5-(3-methoxycyclobutoxy)-2-methyl-4-pyridyl]pyrazolo[1,5-a]pyridin-2-yl]cyclopropanecarboxamide] | 0.0124 µM
N#Cc1cc(-c2ccn3nc(NC(=O)C4CC4)cc3c2)c(OCc2ccnc(C(F)(F)F)c2)cn1 [Example 62, N-[5-[2-cyano-5-[[2-(trifluoromethyl)-4-pyridyl]methoxy]-4-pyridyl]pyrazolo[1,5-a]pyridin-2-yl]cyclopropanecarboxamide] | > 5 µM
CN1CC2(C1)CN(c1cnc(C#N)cc1-c1ccn3nc(NC(=O)C4CC4)cc3c1)C2 [Example 91, N-[5-[2-cyano-5-(2-methyl-2,6-diazaspiro[3.3]heptan-6-yl)-4-pyridyl]pyrazolo[1,5-a]pyridin-2-yl]cyclopropanecarboxamide] | 0.0688 µM
CCOc1ccccc1-c1ccn2nc(NC(=O)C3CC3)cc2c1 [Example 743, N-[5-(2-ethoxyphenyl)pyrazolo[1,5-a]pyridin-2-yl]cyclopropanecarboxamide] | 0.0217 µM

Results, then the compound that gave them:

IC50 | Compound
0.0183 µM | N#Cc1cc(-c2ccn3nc(NC(=O)C4CC4)cc3c2)c(N2CC(CO)C2)cn1 [Example 3, N-[5-[2-cyano-5-[3-(hydroxymethyl)azetidin-1-yl]-4-pyridyl]pyrazolo[1,5-a]pyridin-2-yl]cyclopropanecarboxamide]
0.289 µM | COc1ccc(C)cc1-c1ccn2nc(NC(=O)C3CC3)cc2c1 [Example 744, N-[5-(2-methoxy-5-methyl-phenyl)pyrazolo[1,5-a]pyridin-2-yl]cyclopropanecarboxamide]
0.0103 µM | N#Cc1cc(-c2ccn3nc(NC(=O)C4CC4)cc3c2)c(OCc2ccc(C(F)(F)F)nc2)cn1 [Example 61, N-[5-[2-cyano-5-[[6-(trifluoromethyl)-3-pyridyl]methoxy]-4-pyridyl]pyrazolo[1,5-a]pyridin-2-yl]cyclopropanecarboxamide]
0.0255 µM | N#Cc1cc(-c2ccn3nc(NC(=O)C4CC4)cc3c2)c(NCC2CC2)cn1 [Example 76, N-[5-[2-cyano-5-(cyclopropylmethylamino)-4-pyridyl]pyrazolo[1,5-a]pyridin-2-yl]cyclopropanecarboxamide]
0.198 µM | COc1ccncc1-c1ccn2nc(NC(=O)C3CC3)cc2c1 [Example 751, N-[5-(4-methoxy-3-pyridyl)pyrazolo[1,5-a]pyridin-2-yl]cyclopropanecarboxamide]
0.398 µM | N#Cc1cc(-c2ccn3nc(NC(=O)C4CC4)cc3c2)c(N2CC(O)(C(F)(F)F)C2)cn1 [Example 75, N-[5-[2-cyano-5-[3-hydroxy-3-(trifluoromethyl)azetidin-1-yl]-4-pyridyl]pyrazolo[1,5-a]pyridin-2-yl]cyclopropanecarboxamide]
0.0448 µM | Cc1cc(-c2ccn3nc(NC(=O)C4CC4)cc3c2)c(OC2CN(C(C)C)C2)cn1 [Example 142, N-[5-[5-(1-isopropylazetidin-3-yl)oxy-2-methyl-4-pyridyl]pyrazolo[1,5-a]pyridin-2-yl]cyclopropanecarboxamide]
0.0138 µM | CCN1CC(Oc2cnc(C)cc2-c2ccn3nc(NC(=O)C4CC4)cc3c2)C1 [Example 141, N-[5-[5-(1-ethylazetidin-3-yl)oxy-2-methyl-4-pyridyl]pyrazolo[1,5-a]pyridin-2-yl]cyclopropanecarboxamide]
0.15 µM | CN(C)CC1CN(c2cnc(C#N)cc2-c2ccn3nc(NC(=O)C4CC4)cc3c2)C1 [Example 72, N-[5-[2-cyano-5-[3-(dimethylaminomethyl)azetidin-1-yl]-4-pyridyl]pyrazolo[1,5-a]pyridin-2-yl]cyclopropanecarboxamide]
0.00158 µM | N#Cc1cc(-c2ccn3nc(NC(=O)C4CC4)cc3c2)c(O[C@H]2C[C@H]3C[C@@H]2CN3)cn1 (single isomer, unassigned) [Example 18, N-[5-[5-[[(1*R,4*R,5*S)-2-azabicyclo[2.2.1]heptan-5-yl]oxy]-2-cyano-4-pyridyl]pyrazolo[1,5-a]pyridin-2-yl]cyclopropanecarboxamide]
0.00654 µM | CC(C)(O)C1CN(c2cnc(C#N)cc2-c2ccn3nc(NC(=O)C4CC4)cc3c2)C1 [Example 74, N-[5-[2-cyano-5-[3-(1-hydroxy-1-methyl-ethyl)azetidin-1-yl]-4-pyridyl]pyrazolo[1,5-a]pyridin-2-yl]cyclopropanecarboxamide]
0.0227 µM | CC(C)(C)OC(=O)N1CC2(CC(Oc3cnc(C#N)cc3-c3ccn4nc(NC(=O)C5CC5)cc4c3)C2)C1 [Example 34, tert-butyl 2-[[6-cyano-4-[2-(cyclopropanecarbonylamino)pyrazolo[1,5-a]pyridin-5-yl]-3-pyridyl]oxy]-6-azaspiro[3.3]heptane-6-carboxylate]
0.0143 µM | N#Cc1cc(-c2ccn3nc(NC(=O)C4CC4)cc3c2)c(NC2CCCC2)cn1 [Example 78, N-[5-[2-cyano-5-(cyclopentylamino)-4-pyridyl]pyrazolo[1,5-a]pyridin-2-yl]cyclopropanecarboxamide]
0.014 µM | N#Cc1cc(-c2ccn3nc(NC(=O)C4CC4)cc3c2)c(O[C@H]2CNCCOC2)cn1 [Example 84, N-[5-[2-cyano-5-[[(6S)-1,4-oxazepan-6-yl]oxy]-4-pyridyl]pyrazolo[1,5-a]pyridin-2-yl]cyclopropanecarboxamide]
0.242 µM | Cn1ccc(Nc2cnc(C#N)cc2-c2ccn3nc(NC(=O)C4CC4)cc3c2)n1 [Example 77, N-[5-[2-cyano-5-[(1-methylpyrazol-3-yl)amino]-4-pyridyl]pyrazolo[1,5-a]pyridin-2-yl]cyclopropanecarboxamide]
0.00871 µM | CN1CCC[C@H](Oc2cnc(C#N)cc2-c2ccn3nc(NC(=O)C4CC4)cc3c2)C1 [Example 65, N-[5-[2-cyano-5-[[(3S)-1-methyl-3-piperidyl]oxy]-4-pyridyl]pyrazolo[1,5-a]pyridin-2-yl]cyclopropanecarboxamide]
